Experimental data as given in PubChem BioAssay (NCI).
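1) Cells in 96-well plates. 2) Compound, 48 h, 5 concentrations. 3) Linear interpolation between surrounding doses. 4) Unreached endpoint = highest concentration. Here, GI50 denotes the concentration required for 50% inhibition of growth. Definition used: TGI = concentration required for complete inhibition of growth.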

Tests used:
Experiment in all cases: NCI tumour cell line growth inhibition, 48 h
A549 NSCLC = system: A549 NSCLC
M14 melanoma = system: M14 melanoma
786-0 renal = system: 786-0 renal
SN12C renal = system: SN12C renal
SK-OV-3 ovarian = system: SK-OV-3 ovarian
MALME-3M melanoma = system: MALME-3M melanoma
PC-3 prostate = system: PC-3 prostate
OVCAR-3 ovarian = system: OVCAR-3 ovarian
TK-10 renal = system: TK-10 renal
CAKI-1 renal = system: CAKI-1 renal

Cc1cc(N(CCCNc2ccnc3cc(Cl)ccc23)Cc2ccco2)nc(N2CCN(C)CC2)n1
GI50 (A549 NSCLC): 4.34 µM
TGI (A549 NSCLC): 15.4 µM
GI50 (M14 melanoma): 1.85 µM
TGI (M14 melanoma): 3.44 µM
GI50 (786-0 renal): 1.83 µM
TGI (786-0 renal): 3.63 µM
GI50 (SN12C renal): 4.24 µM
TGI (SN12C renal): 17 µM
GI50 (SK-OV-3 ovarian): 5.99 µM
TGI (SK-OV-3 ovarian): 31.2 µM
GI50 (MALME-3M melanoma): 1.83 µM
TGI (MALME-3M melanoma): 3.5 µM
GI50 (PC-3 prostate): 4.12 µM
TGI (PC-3 prostate): 17.3 µM
GI50 (OVCAR-3 ovarian): 2.87 µM
TGI (OVCAR-3 ovarian): 12.1 µM
GI50 (TK-10 renal): 2.08 µM
TGI (TK-10 renal): 4.82 µM

C[CH2][Sn]([CH2]C)([O]C(=O)c1ccccc1OC)[O][Sn]([CH2]C)([CH2]C)[O]C(=O)c1ccccc1OC
GI50 (A549 NSCLC): > 100 µM
TGI (A549 NSCLC): > 100 µM
GI50 (M14 melanoma): > 100 µM
TGI (M14 melanoma): > 100 µM
GI50 (CAKI-1 renal): 34.6 µM
TGI (CAKI-1 renal): > 100 µM
GI50 (786-0 renal): > 100 µM
TGI (786-0 renal): > 100 µM
GI50 (SN12C renal): > 100 µM
TGI (SN12C renal): > 100 µM
GI50 (SK-OV-3 ovarian): > 100 µM
TGI (SK-OV-3 ovarian): > 100 µM
GI50 (MALME-3M melanoma): 27.6 µM
TGI (MALME-3M melanoma): > 100 µM
GI50 (OVCAR-3 ovarian): > 100 µM
TGI (OVCAR-3 ovarian): > 100 µM
GI50 (TK-10 renal): > 100 µM
TGI (TK-10 renal): > 100 µM

Cc1ccc(NC(=O)CC2C(=O)Nc3ccccc3S2(=O)=O)c(C)c1 (stereo not drawn)
TGI (A549 NSCLC): 36.8 µM
TGI (M14 melanoma): 26.2 µM
TGI (CAKI-1 renal): 35.9 µM
TGI (786-0 renal): 40.3 µM
TGI (SN12C renal): 39.3 µM
TGI (MALME-3M melanoma): 45.9 µM
TGI (OVCAR-3 ovarian): 30.1 µM
TGI (TK-10 renal): 55 µM

C=CNC(=O)NC(=O)CSc1nnc(-c2ccccc2NC(=O)C(F)(F)F)c(=O)[nH]1
TGI (A549 NSCLC): > 100 µM
TGI (M14 melanoma): > 100 µM
TGI (CAKI-1 renal): > 100 µM
TGI (786-0 renal): > 100 µM
TGI (SN12C renal): > 100 µM
TGI (SK-OV-3 ovarian): > 100 µM
TGI (MALME-3M melanoma): 28.8 µM
TGI (OVCAR-3 ovarian): > 100 µM
TGI (TK-10 renal): > 100 µM

NC(=O)c1csc(C2OC(COP(=O)(O)CP(=O)(O)OCC3OC(n4cnc5c(N)ncnc54)C(O)C3O)C(O)C2O)n1 (stereo not drawn)
TGI (A549 NSCLC): > 100 µM
TGI (M14 melanoma): > 100 µM
TGI (CAKI-1 renal): > 100 µM
TGI (786-0 renal): > 100 µM
TGI (SN12C renal): > 100 µM
TGI (SK-OV-3 ovarian): > 100 µM
TGI (MALME-3M melanoma): > 100 µM
TGI (OVCAR-3 ovarian): > 100 µM
TGI (TK-10 renal): > 100 µM

COc1cc2c(cc1OC)-c1ncc3c(OC)c(OC)c(OC)cc3c1C2
GI50 (A549 NSCLC): 19.1 µM
TGI (A549 NSCLC): 40.7 µM
GI50 (M14 melanoma): > 100 µM
TGI (M14 melanoma): > 100 µM
GI50 (CAKI-1 renal): 55.2 µM
TGI (CAKI-1 renal): > 100 µM
GI50 (786-0 renal): 36.7 µM
TGI (786-0 renal): > 100 µM
GI50 (SK-OV-3 ovarian): 18.9 µM
TGI (SK-OV-3 ovarian): 43.2 µM
GI50 (PC-3 prostate): > 100 µM
TGI (PC-3 prostate): > 100 µM
GI50 (OVCAR-3 ovarian): 0.529 µM
TGI (OVCAR-3 ovarian): 9.91 µM
GI50 (TK-10 renal): 18.9 µM
TGI (TK-10 renal): 50.4 µM

O=C(O)/C=C/c1nc2ccccc2c(=O)o1
TGI (A549 NSCLC): > 100 µM
TGI (M14 melanoma): > 100 µM
TGI (786-0 renal): > 100 µM
TGI (SN12C renal): > 100 µM
TGI (SK-OV-3 ovarian): > 100 µM
TGI (OVCAR-3 ovarian): > 100 µM
TGI (TK-10 renal): > 100 µM

COC1C(N)C(OC2C(Oc3cccc4c(O)c5c(=O)oc6ccc(C)c7c(=O)oc(c34)c5c67)OC(C)C(O)C2(C)O)OC(C)C1O (stereo not drawn)
TGI (A549 NSCLC): 1.49 µM
TGI (M14 melanoma): 0.75 µM
TGI (CAKI-1 renal): 1.45 µM
TGI (786-0 renal): 0.36 µM
TGI (SN12C renal): 0.547 µM
TGI (MALME-3M melanoma): 0.171 µM
TGI (PC-3 prostate): 1.18 µM
TGI (OVCAR-3 ovarian): 0.406 µM
TGI (TK-10 renal): 1.27 µM

COc1ncnc(NS(=O)(=O)c2ccc(N=C3C(=O)N(CN4CCN(c5c(F)cc6c(=O)c(C(=O)O)cn(C7CC7)c6c5OC)CC4C)c4ccc(Br)cc43)cc2)c1OC (stereo not drawn)
GI50 (A549 NSCLC): 4.78 µM
TGI (A549 NSCLC): > 50 µM
GI50 (M14 melanoma): 15.3 µM
TGI (M14 melanoma): > 50 µM
GI50 (CAKI-1 renal): 6.21 µM
TGI (CAKI-1 renal): > 50 µM
GI50 (786-0 renal): 38.8 µM
TGI (786-0 renal): > 50 µM
GI50 (SN12C renal): 10.1 µM
TGI (SN12C renal): 23.4 µM
GI50 (PC-3 prostate): 6.76 µM
TGI (PC-3 prostate): 29.4 µM
GI50 (OVCAR-3 ovarian): 7.52 µM
TGI (OVCAR-3 ovarian): 40.7 µM
GI50 (TK-10 renal): 2.47 µM
TGI (TK-10 renal): > 50 µM

O=S(=O)(c1cccc(N=C=S)c1)c1cccc(N=C=S)c1
TGI (A549 NSCLC): > 100 µM
TGI (M14 melanoma): 25.6 µM
TGI (786-0 renal): 29.5 µM
TGI (SN12C renal): 37.7 µM
TGI (SK-OV-3 ovarian): 37.3 µM
TGI (MALME-3M melanoma): 34.9 µM
TGI (OVCAR-3 ovarian): 24 µM
TGI (TK-10 renal): 40 µM

COc1ccc(NC(=O)C2CCC(CNS(=O)(=O)c3ccccc3)CC2)cc1OC (stereo not drawn)
GI50 (A549 NSCLC): > 100 µM
TGI (A549 NSCLC): > 100 µM
GI50 (M14 melanoma): > 100 µM
TGI (M14 melanoma): > 100 µM
GI50 (CAKI-1 renal): > 100 µM
TGI (CAKI-1 renal): > 100 µM
GI50 (786-0 renal): > 100 µM
TGI (786-0 renal): > 100 µM
GI50 (SN12C renal): 2.69 µM
TGI (SN12C renal): 69.5 µM
GI50 (MALME-3M melanoma): 40.3 µM
TGI (MALME-3M melanoma): > 100 µM
GI50 (PC-3 prostate): > 100 µM
TGI (PC-3 prostate): > 100 µM
GI50 (OVCAR-3 ovarian): > 100 µM
TGI (OVCAR-3 ovarian): > 100 µM
GI50 (TK-10 renal): > 100 µM
TGI (TK-10 renal): > 100 µM

C/C(=C\c1cnc(C)s1)[C@@H]1C[C@@H]2O[C@@H]2CCC[C@H](C)[C@H](O)[C@@H](C)C(=O)C(C)(C)[C@@H](O)CC(=O)O1
GI50 (A549 NSCLC): < 0.01 µM
TGI (A549 NSCLC): > 100 µM
GI50 (786-0 renal): < 0.01 µM
TGI (786-0 renal): > 100 µM
GI50 (SN12C renal): < 0.01 µM
TGI (SN12C renal): > 100 µM
GI50 (SK-OV-3 ovarian): < 0.0125 µM
TGI (SK-OV-3 ovarian): > 100 µM
GI50 (PC-3 prostate): < 0.01 µM
TGI (PC-3 prostate): > 100 µM
GI50 (OVCAR-3 ovarian): < 0.01 µM
TGI (OVCAR-3 ovarian): > 100 µM
GI50 (TK-10 renal): 0.936 µM
TGI (TK-10 renal): > 100 µM

COCOCC/C=C/C=O
TGI (A549 NSCLC): > 100 µM
TGI (M14 melanoma): > 100 µM
TGI (786-0 renal): > 100 µM
TGI (SN12C renal): > 100 µM
TGI (SK-OV-3 ovarian): > 100 µM
TGI (MALME-3M melanoma): > 100 µM
TGI (OVCAR-3 ovarian): > 100 µM
TGI (TK-10 renal): > 100 µM
